In PMC12281485, “High-Throughput Screening of Potent Drug-like Molecules Targeting 17β-HSD10 for the Treatment of Alzheimer’s Disease and Cancer” (ACS Chemical Biology, 2025):
Like-named read-outs stand apart in the source and are kept apart here.

Assays:
17β-HSD10 [1] = target: T1, 17β-HSD10 (Homo sapiens, UniProt Q99714); assay: 17β-HSD10 enzyme inhibition dose-response assay (acetoacetyl-CoA/NADH, absorbance 340 nm); format: biochemical
T1 construct: Recombinant 17β-HSD10 was expressed and purified as previously described in Aitken et al; made in house
T1 sequence (Q99714 1-261): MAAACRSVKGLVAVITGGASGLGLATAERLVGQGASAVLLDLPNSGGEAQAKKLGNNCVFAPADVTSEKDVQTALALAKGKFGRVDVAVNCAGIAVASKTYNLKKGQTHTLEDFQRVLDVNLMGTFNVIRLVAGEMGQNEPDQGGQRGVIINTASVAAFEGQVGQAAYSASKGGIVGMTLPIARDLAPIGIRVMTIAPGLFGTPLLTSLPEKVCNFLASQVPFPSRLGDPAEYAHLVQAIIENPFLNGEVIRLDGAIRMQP
Protocol: Recombinant 17β-HSD10 was expressed and purified as previously described in Aitken et al.
17β-HSD10 screening was carried out as described in Aitken et al. with the exception that experiments were also conducted in clear-bottom 1536-well low-volume microplates (Corning) with a final assay volume of 20 μL. For primary screening, an endpoint assay format was adopted, in which an Echo acoustic liquid dispenser (Labcyte) was used to transfer 20 nL of either DMSO control […] or test compounds (10 μM) to the assay plate. 10 μL of the 17β-HSD10 enzyme in an assay buffer (2.5 nM) was then added to the plates using the Preddator liquid handling robot (Redd and Whyte), and plates were incubated at RT for 15 min. 10 μL of the substrate mixture (100 μM acetoacetyl-CoA and 100 μM NADH) was added with the Preddator. To start the reaction, the plates were left to incubate for 35 min at RT before the absorbance at 340 nm was read on the EnVision plate reader (PerkinElmer). For the kinetic assay format and dose-response follow-up experiments, the same protocol was adopted, except that the absorbance at 340 nm was monitored constantly for 45 min from immediately after the reaction was started.

[2] = tested on: HEK293 cells overexpressing 17β-HSD10; assay: LDH cytotoxicity assay; format: cell-based, human; settings: 50 μM compound, 24 h, n = 3 ± SD
Protocol: Cell cytotoxicity was assessed via the measurement of LDH leakage into the culture medium using a commercially available kit from Pierce (Thermo Scientific cat no. 88953). This was carried out in accordance with the kit guidelines, with the activity of LDH being calculated from the change in absorbance at […]. Human embryonic kidney (HEK293) cells overexpressing 17β-HSD10 were cultured in phenol-red free media (10% FBS, 1 mM sodium pyruvate, 100 units penicillin, 0.1 mg mL^–1 streptomycin, and 2 mM L-glutamine) and seeded at a density of 10,000 cells per well (100 μL, 96-well plates). […] Treated cells were then incubated at 37 °C and CO2 (5%) for 24 h before the LDH assay was performed as per the manufacturer’s instructions. Spontaneous control (water) and maximum control (lysis buffer) were used in accordance with the kit guide. Absorbance was measured at 490 and 680 nm using the SpectraMaxM2e spectrophotometer. The measured LDH activity was used to calculate %cytotoxicity using the following equation (eq ): %cytotoxicity=(compoundtreatedLDHactivity−spontaneousLDHactivity)/(maximumLDHactivity−spontaneousLDHactivity)×100 1

[3] = Alamar Blue cell viability assay; format: cell-based, human; settings: human, HEK293 cells overexpressing 17β-HSD10, 50 μM compound, n = 3 ± SD, read-out: Alamar Blue % viability (50 μM dose)
Protocol: Cell viability was assessed via fluorescence change using the commercially available Alamar Blue from ThermoFisher. HEK293 cells overexpressing 17β-HSD10 were cultured in phenol-red free media (10% FBS, 1 mM sodium pyruvate, 100 units penicillin, 0.1 mg mL^–1 streptomycin, and 2 mM L-glutamine) and seeded at a density of 10,000 cells per well (100 μL, 96-well plates). […] Treated cells were then incubated at 37 °C and CO2 (5%) for 24 h before the assay was performed as per the manufacturer’s instructions. Fluorescence was measured at 530 nm excitation and 590 nm emission using the SpectraMaxM2e spectrophotometer.

17β-HSD10 [4] = target: T1, 17β-HSD10; assay: (−)-CHANA fluorescence assay of cellular 17β-HSD10 activity; format: cell-based; settings: read-out: cellular 17β-HSD10 activity mean pEC50 (converted)
Protocol: (−)–CHANA ((−)-cyclohexenyl amino naphthalene alcohol) is a fluorogenic probe that can be used to detect 17β-HSD10 activity in living cells. HEK293 17β-HSD10 cells were seeded at a density of 10,000 cells per well (100 μL, 96-well black plates) in phenol-red free media (10% FBS, 1 mM sodium pyruvate, 100 units penicillin, 0.1 mg mL^–1 streptomycin, and 2 mM L-glutamine). […] The fluorogenic probe (−)–CHANA was then added to each well to give a final assay concentration of 20 μM. Fluorescence was immediately measured using the FLUOstar Optima microplate reader (excitation = 380 nm, emission = 520 nm, orbital averaging = 3 mm), and the initial reaction was monitored for 3–4 h. EC50 was calculated from the control-subtracted triplicates using nonlinear regression (four parameters) of GraphPad Prism 5 software. The Final EC50 and SEM values were obtained as a mean of at least three independent measurements.

[5] = Mouse hepatocyte metabolic stability; format: in vitro ADME; set-up: k (elimination constant): unit not given here; settings: mouse hepatocytes
Protocol: Hepatocyte isolation, hepatocyte incubations for metabolic stability, plasma protein binding (PPB) experiments, and LC/MS sample analysis were carried out as previously described in Brandon et al. and MacLeod et al.
XLfit (IDBS, UK) was used to calculate the exponential decay and the rate constant (k) from the ratio of the peak area of the test compound to the internal standard at each time point. […] Verapamil, 7-ethoxycoumarin, 7-hydroxycoumarin, and phthalazine were used as positive controls to confirm acceptable assay performance. […] Values were transferred to RStudio v1.3.1093 (Posit, Boston, MA, USA) for generation of scatter plots and heatmaps using the ggplot2 package (Wickham 2016).

[6] = Table 2, chemically modified cluster hit compounds, read-out: 17β-HSD10 pIC50 (converted)
[7] = Table 4, 17β-HSD10 overexpressing HEK293 cells, CHANA fluorescence assay
[8] = Table 3, chemically modified singleton hit compound series, read-out: 17β-HSD10 pIC50 (converted)
[9] = Table 1, primary screening assay, resynthesized HTS hits, read-out: 17β-HSD10 pIC50 (converted)

SMILES | IC50 (17β-HSD10 [1]; [6]) | LDH % toxicity (50 μM dose) [2] | viability at 24 h, 50 μM [3] | EC50 (17β-HSD10 [4]; [7]) | IC50 (17β-HSD10 [1]; [8]) | further results
COc1ccc(C(=O)N(CC(C)C)c2cccc(N(C)Cc3cnc[nH]3)c2)cc1 [ESC1002182] | 331 nM | 4.73 ± 0.01% | 85.4 ± 3.61% | 1670 nM |  | 
Cc1nc[nH]c1CN(C)c1cccc(N(CC(C)C)C(=O)c2ccccc2F)c1 [ESC1002204] | 398 nM | 5.05 ± 0.01% | 96.7 ± 3.61% | 1360 nM |  | IC50 (17β-HSD10 [1]; Table 5, read-out: mean 17β-HSD10 pIC50 (converted)): 398 nM; EC50 (17β-HSD10 [4]; Table 5, HEK293 17β-HSD10 cells, CHANA assay): 1360 nM; k (elimination constant) [5]: 0.11; Heps category ([5]; metabolism category): high; Cl (clearance) ([5]; limits of quantitation 0.5 and 50): >50 mL/min/g liver; half-life ([5]; read-out: T1/2 (half-life)): 6.2 min
Cc1ccc(C(=O)N(CC(C)C)c2cccc(N(C)Cc3cnc[nH]3)c2)cc1 [ESC1002032] | 251 nM |  |  |  |  | 
Cc1ccsc1C(=O)N1CCC[C@H]1c1ccccc1-c1cccnc1 [ESC1002090] |  |  |  |  | 1150 nM | 
COc1cccc(-c2ccccc2[C@@H]2CCCN2C(=O)c2[nH]ncc2Cl)c1 [ESC1002626] |  |  |  |  | 457 nM | 
COc1ccc(-c2ccccc2[C@@H]2CCCN2C(=O)c2sccc2C)cn1 [ESC1002161] |  |  |  |  |  | 17β-HSD10 pIC50 (17β-HSD10 [1]; Supplementary B, Table S1 and text, enantiomers): < 4.7
CC(C)CN(C(=O)c1ccncc1)c1cccc(N(C)Cc2cnc[nH]2)c1 [ESC1002034] |  |  |  |  |  | IC50 (17β-HSD10 [1]; [9]): 1580 nM
COc1cccc(-c2ccccc2[C@H]2CCCN2C(=O)c2ccccc2C)c1 [ESC1002434] |  |  |  |  |  | 17β-HSD10 inhibitory activity (in words) (17β-HSD10 [1]): not tolerated
COc1cccc(-c2ccccc2C2CCCN2C(=O)c2sccc2Cl)c1 (racemic) [ESC1002432] |  | 4.24 ± 0.02% | 80.61 ± 0.78% |  |  | 
CC(C)CN(C(=O)c1ccccc1F)c1cccc(N(C)Cc2ccn[nH]2)c1 [ESC1002205] | 891 nM | 5.84 ± 0.01% | 82.52 ± 0.57% | 3130 nM |  | 
Cc1ccsc1C(=O)N1CCC[C@H]1c1ccccc1-c1cnn(C)c1 [ESC1002424] |  |  |  |  | 933 nM | LipE (17β-HSD10 [1]): 2.1
COc1cccc(-c2ccccc2C2CCCN2C(=O)c2sccc2C)c1 (stereo not shown) [ESC1002338] |  | 4.64 ± 0.01% | 83 ± 1.25% | 1150 nM |  | IC50 (17β-HSD10 [1]; enzyme screening assay, read-out: IC50): 191 nM
CC(C)CN(C(=O)C1CCCCC1)c1cccc(N(C)Cc2cnc[nH]2)c1 [ESC1002166] | 955 nM | 4.55 ± 0.02% | 78.9 ± 0.9% | 976 nM |  | 
COc1ccc(-c2ccccc2C2CCCN2C(=O)c2sccc2C)cc1 (stereo not shown) [ESC1002332] | 166 nM | 3.52 ± 0.01% | 87.7 ± 1.67% | 7220 nM |  | 
O=C(c1sccc1Cl)N1CCCC1c1ccccc1-c1cc(O)cc(F)c1 (racemic) [ESC1002776] |  | 20.00 ± 0.11% | 65.6 ± 1.67% | 228 nM | 40.7 nM | 
O=C(c1sccc1Cl)N1CCCC1c1ccccc1-c1cc(O)cc(F)c1 (stereo not shown) [ESC1002801] |  | 5.50 ± 0.01% | 82.55 ± 0.62% | 50 nM | 51.3 nM | 
CC(C)CN(C(=O)c1ccccc1F)c1cccc(NCc2c[nH]cn2)c1 [ESC1002631] | 9330 nM |  |  |  |  | 
COc1cccc(-c2ccccc2C2CCCN2Cc2sccc2F)c1 (stereo not shown) [ESC1002695] |  |  |  |  |  | 17β-HSD10 inhibitory activity (in words) (17β-HSD10 [1]): lost all activity
O=C(c1ccccc1F)N1CCCc2ccc(NCc3cnc[nH]3)cc21 [ESC1002081] |  |  |  |  |  | 17β-HSD10 inhibitory activity (in words) (17β-HSD10 [1]): potency was abolished
O=C(c1sccc1Cl)N1CCCC1c1ccccc1-c1ccc(F)c(O)c1 (stereo not shown) [ESC1002775] |  | 2.54 ± 0.004% | 81.53 ± 0.56% | 449 nM | 49 nM | 
COc1cccc(-c2ccccc2C2CCCN2C(=O)c2sccc2Cl)c1 (stereo not shown) [ESC1002606] |  | 5.09 ± 0.02% | 78 ± 1.09% |  |  | 
O=C(c1sccc1Cl)N1CCC[C@H]1c1ccccc1-c1cccc(O)c1 [ESC1002666] |  | 4.49 ± 0.02% | 79.3 ± 1.03% | 138 nM | 58.9 nM | 
CC(C)CN(C(=O)c1ccc(Cl)cc1F)c1cccc(N(C)Cc2cnc[nH]2)c1 [ESC1002042] | 316 nM |  |  |  |  | LipE (17β-HSD10 [1]; Table 1, lipophilic efficiency): 1.46
COc1ccc(-c2ccccc2[C@@H]2CCCN2C(=O)c2sccc2C)cc1 [ESC1002089] |  | 5.40 ± 0.05% | 82 ± 2.23% | 1790 nM | 331 nM | fold improvement in activity/potency over hit ESC1002082 (17β-HSD10 [1]; relative to ESC1002082): ~3 fold
COc1ccc(C(=O)N(CC(C)C)c2cccc(N(C)Cc3c[nH]cn3)c2)c(F)c1 [ESC1002576] | 245 nM | 5.19 ± 0.01% | 79.1 ± 0.99% | 599 nM |  | 
COc1cccc(C(=O)N(CC(C)C)c2cccc(N(C)Cc3cnc[nH]3)c2)c1 [ESC1002038] |  |  |  |  |  | IC50 (17β-HSD10 [1]; [9]): 2000 nM
